Results as given in patent US20190284136A1, “INDOLINE DERIVATIVES” (ViiV HEALTHCARE UK LIMITED, priority 2016, published 2019).

What follows are compounds tested on HIV (assay: Table 1 IC50 of the examples (assay method not given; patent concerns inhibiting HIV replication)). Details: not given.
Assay type: cell-based

COc1c(F)cccc1C(=O)N1CCc2c1cc(C)c([C@H](OC(C)(C)C)C(=O)O)c2-c1cc(F)c2c(c1C)CCCO2 (atropisomer, axis not shown; (P)) [Example 23, (S)-2-(tert-Butoxy)-2-((P)-1-(3-fluoro-2-methoxybenzoyl)-4-(8-fluoro-5-methylchroman-6-yl)-6-methylindolin-5-yl)acetic acid] was tested, and the IC50 was 95 nM.

Same assay, conditions: Human immunodeficiency virus 1

Going from Cc1cc2c(ccn2Cc2ccc(F)c(F)c2)c(-c2cc(F)c3c(c2C)CCCO3)c1[C@H](OC(C)(C)C)C(=O)O (atropisomer, axis not shown) [Example 198, (S)-2-(tert-Butoxy)-2-((R)-1-(3,4-difluorobenzyl)-4-(8-fluoro-5-methylchroman-6-yl)-6-methyl-1H-indol-5-yl)acetic acid] to Cc1cc2c(ccn2C(=O)c2ccc(F)c(F)c2)c(-c2cc(F)c3c(c2C)CCCO3)c1[C@H](OC(C)(C)C)C(=O)O (atropisomer, axis not shown) [Example 203, (S)-2-(tert-Butoxy)-2-((R)-1-(3,4-difluorobenzoyl)-4-(8-fluoro-5-methylchroman-6-yl)-6-methyl-1H-indol-5-yl)acetic acid], the IC50 falls from 150 nM to 16 nM (9.4-fold). The second is the more potent here.

Cc1cc(F)ccc1Cn1ccc2c(-c3cc(F)c4c(c3C)CCCO4)c([C@H](OC(C)(C)C)C(=O)O)c(C)cc21 (atropisomer, axis not shown) [Example 199, (S)-2-(tert-Butoxy)-2-((R)-1-(4-fluoro-2-methylbenzyl)-4-(8-fluoro-5-methylchroman-6-yl)-6-methyl-1H-indol-5-yl)acetic acid] and COc1c(F)cccc1Cn1ccc2c(-c3cc(F)c4c(c3C)CCCO4)c([C@H](OC(C)(C)C)C(=O)O)c(C)cc21 (atropisomer, axis not shown) [Example 200, (S)-2-(tert-Butoxy)-2-((R)-1-(3-Fluoro-2-methoxybenzyl)-4-(8-fluoro-5-methylchroman-6-yl)-6-methyl-1H-indol-5-yl)acetic acid] are within 1.5-fold of each other in IC50: 42 nM for the first, 34 nM for the second.

Going from Cc1cc2c(ccn2Cc2ccccn2)c(-c2cc(F)c3c(c2C)CCCO3)c1[C@H](OC(C)(C)C)C(=O)O (atropisomer, axis not shown) [Example 201, (S)-2-(tert-Butoxy)-2-((R)-4-(8-Fluoro-5-methylchroman-6-yl)-6-methyl-1-(pyridin-2-ylmethyl)-1H-indol-5-yl)acetic acid] to Cc1cc2c(c(-c3cc(F)c4c(c3C)CCCO4)c1C(OC(C)(C)C)C(=O)O)CCN2Cc1ccc(F)c(F)c1 (centres unmarked) [Example 2, 2-(tert-Butoxy)-2-(1-(3,4-difluorobenzyl)-4-(8-fluoro-5-methylchroman-6-yl)-6-methylindolin-5-yl)acetic acid], the IC50 rises from 80 nM to 330 nM (4.1-fold). The first is the more potent here.

Cc1ccc(C(=O)N2c3cc(C)c([C@H](OC(C)(C)C)C(=O)O)c(-c4cc(F)c5c(c4C)CCCO5)c3CC2(C)C)cn1 (atropisomer, axis not shown) [Example 204, (S)-2-(tert-Butoxy)-2-((R)-4-(8-Fluoro-5-methylchroman-6-yl)-2,2,6-trimethyl-1-(6-methylnicotinoyl)indolin-5-yl)acetic acid] and COc1ccc(C(=O)N2c3cc(C)c([C@H](OC(C)(C)C)C(=O)O)c(-c4cc(F)c5c(c4C)CCCO5)c3CC2(C)C)cc1C (atropisomer, axis not shown) [Example 206, (S)-2-(tert-Butoxy)-2-((R)-4-(8-fluoro-5-methylchroman-6-yl)-1-(4-methoxy-3-methylbenzoyl)-2,2,6-trimethylindolin-5-yl)acetic acid] are within 1.5-fold of each other in IC50: 19 nM for the first, 13 nM for the second.

Going from COc1ccc(C)cc1C(=O)N1c2cc(C)c([C@H](OC(C)(C)C)C(=O)O)c(-c3cc(F)c4c(c3C)CCCO4)c2CC1(C)C (atropisomer, axis not shown) [Example 205, (S)-2-(tert-Butoxy)-2-((R)-4-(8-Fluoro-5-methylchroman-6-yl)-1-(2-methoxy-5-methylbenzoyl)-2,2,6-trimethylindolin-5-yl)acetic acid] to Cc1ccc(-c2c3c(cc(C)c2C(OC(C)(C)C)C(=O)O)N(Cc2ccc(F)c(F)c2)CC3)cc1 (centres unmarked) [Example 1], the IC50 rises from 20 nM to 517 nM (26-fold).
